A short description of series [1]: In vivo pharmacokinetics in rats after IV or PO administration. Further details: species or system Sprague Dawley (SD) male rats. To be noted: male, Sprague Dawley, rat, oral 5 mg/kg, measured as 2d form in plasma. As for the experimental part: For in vivo pharmacokinetic studies, Sprague Dawley (SD) male rats (weighing 270–280 g) were purchased from Orient Bio Inc. (Seongnam, Korea). Experimental protocols involving animal use were carefully reviewed and approved by the Institutional Animal Care and Use Committee at Gachon University. Prior to studies, animals fasted for 18 h, but with free access to water. Compound 5d or 2d was dissolved in a dosing vehicle consisting of PEG400, normal saline, and dimethylsulfoxide in a ratio of 6:3:1 (v/v/v%) to make a 2 mg/mL dosing solution. […]
To determine drug concentration levels in plasma, the Agilent 1290 UHPLC-DAD system with Polar RP column (3 μm, 150 mm × 2 mm ID., Phenomenex) was used for chromatographic separations. […] The total run time was 4.4 min for samples which were monitored at 260 nm. […]
(§1) The EC50 values for luciferase reporter assay were calculated based on a logistic four-parametric equation using the mean values of intrinsic activation (SigmaPlot 10.0; Systat Software Inc., San Jose, CA, USA). The IC50 and t1/2 values for the cytochrome P450 inhibition assay and metabolic stability test were calculated by WinNonlin software (Pharsight, Mountain View, CA, USA). Pharmacokinetic parameters were calculated using non-compartmental analysis (WinNonlin v.8.3; Pharsight, Mountain View, CA, USA). […]

For series [2], the target named is T1, hCRY1 (Homo sapiens, UniProt Q16526).
T1 sequence (Q16526 1-586): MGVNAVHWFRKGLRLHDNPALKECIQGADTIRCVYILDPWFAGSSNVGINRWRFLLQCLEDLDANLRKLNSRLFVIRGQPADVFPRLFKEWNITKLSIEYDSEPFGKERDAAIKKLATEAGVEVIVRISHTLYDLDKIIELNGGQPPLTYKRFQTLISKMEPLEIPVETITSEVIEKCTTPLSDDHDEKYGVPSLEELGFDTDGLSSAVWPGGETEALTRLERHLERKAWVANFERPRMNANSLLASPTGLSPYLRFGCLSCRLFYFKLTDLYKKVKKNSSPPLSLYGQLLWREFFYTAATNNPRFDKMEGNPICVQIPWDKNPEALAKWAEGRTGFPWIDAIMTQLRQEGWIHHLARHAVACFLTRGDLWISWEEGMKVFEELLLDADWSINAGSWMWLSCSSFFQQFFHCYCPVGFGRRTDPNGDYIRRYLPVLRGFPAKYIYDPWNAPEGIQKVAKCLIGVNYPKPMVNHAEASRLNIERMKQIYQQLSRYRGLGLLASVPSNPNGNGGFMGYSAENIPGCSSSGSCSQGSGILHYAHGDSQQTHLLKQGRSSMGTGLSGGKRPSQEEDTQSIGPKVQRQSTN
Description: Surface plasmon resonance, CRY1. In kind it is binding. To be noted: SPR, His-tagged CRY1, Langmuir 1:1 model. The arrangement: GST; purchased MyBioSource; host or cells: baculovirus expression system. As for the experimental part: We used a ProteOn XPR36 system (Bio-Rad, Hercules, CA, USA) equipped with a HTE sensor chip (high capacity tris-NTA for histidine-tagged […] capture, Bio-Rad) for surface plasmon resonance analyses. Purified target proteins (6xHis- and GST-tagged hCRY1 and hCRY2) were prepared by a baculovirus expression system (MyBioSource, San Diego, CA, USA). Phosphate buffered saline (PBS) plus 0.005% Tween 20 was used as the running buffer. The 6xHis-hCRY1 and 6xHis-hCRY2 proteins were immobilized onto separate channels of a HTE chip by injecting 210 μL protein sample (2.0 μg/mL) into flow cells (30 μL/min) to allow saturation. Serially diluted compound 2d samples (50–800 μM) were prepared in 4% DMSO in TBS-T buffer. […] Recorded resonance units (RU) were normalized and plotted against chemical concentration. […]
as §1
(SPR reads the build-up and loss of mass on a sensor chip optically.)

A word on the half-life: it is how long it takes for the measured level to halve. Low readings indicate fast loss, high ones slow loss. What is called Kd is the concentration at which binding is half-saturated.

In turn, `CC(=NOCc1ccc([N+](=O)[O-])cc1)c1cccc(OCC(=O)O)c1` [Compound 2d, 2-(3-(1-(((4-nitrobenzyl)oxy)imino)ethyl)phenoxy)acetic acid] yielded a half-life in series [1] of 6.52 ± 0.793 h. Further, the AUC in series [1] (read-out: AUCinfinite (converted)) was 184 µg·h/mL. In addition, in series [2], binding was characterised by a dissociation constant (Kd) of 389 µM.

Source of the values: PMC8225008, “Development of Non-Ethoxypropanoic Acid Type Cryptochrome Inhibitors with Circadian Molecular Clock-Enhancing Activity by Bioisosteric Replacement” (Pharmaceuticals, 2021).
